Measurements as given in the supplement of paper PMC11451515.

System: P12-Ichikawa
Assay: cell viability relative to DMSO control; higher = less cytotoxic
Conditions: 48 h
Method in brief: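 Three leukemia lines were tested: NOMO1 and SEM at 500 cells/well and P12-Ichikawa at 1000 cells/well. Each was adapted for at least four passages in each medium and seeded in 5 μl in 1536-well plates, and library compounds in DMSO were pin-dosed from 47 μM to 0.79 nM in 11 threefold steps. After 48 h at 37°C, CellTiter-Glo One luminescence was read. Viability is a percentage relative to DMSO wells on each plate, with cell-free wells as background.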

[1] = HPLM + 10% dialyzed FBS, 0.000781 µM
[2] = HPLM + 10% dialyzed FBS, 0.00234 µM
[3] = HPLM + 10% dialyzed FBS, 0.00702 µM
[4] = HPLM + 10% dialyzed FBS, 0.0211 µM
[5] = HPLM + 10% dialyzed FBS, 0.0632 µM
[6] = HPLM + 10% dialyzed FBS, 0.19 µM
[7] = HPLM + 10% dialyzed FBS, 0.569 µM
[8] = HPLM + 10% dialyzed FBS, 1.71 µM
[9] = HPLM + 10% dialyzed FBS, 5.12 µM
[10] = HPLM + 10% dialyzed FBS, 15.4 µM
[11] = HPLM + 10% dialyzed FBS, 46.1 µM
[12] = RPMI 5 mM glucose + 10% FBS, 0.000781 µM
[13] = RPMI 5 mM glucose + 10% FBS, 0.00234 µM
[14] = RPMI 5 mM glucose + 10% FBS, 0.00702 µM
[15] = RPMI 5 mM glucose + 10% FBS, 0.0211 µM
[16] = RPMI 5 mM glucose + 10% FBS, 0.0632 µM
[17] = RPMI 5 mM glucose + 10% FBS, 0.19 µM
[18] = RPMI 5 mM glucose + 10% FBS, 0.569 µM
[19] = RPMI 5 mM glucose + 10% FBS, 1.71 µM
[20] = RPMI 5 mM glucose + 10% FBS, 5.12 µM
[21] = RPMI 5 mM glucose + 10% FBS, 15.4 µM
[22] = RPMI 5 mM glucose + 10% FBS, 46.1 µM
[23] = RPMI 5 mM glucose + 10% dialyzed FBS, 0.000781 µM
[24] = RPMI 5 mM glucose + 10% dialyzed FBS, 0.00234 µM
[25] = RPMI 5 mM glucose + 10% dialyzed FBS, 0.00702 µM
[26] = RPMI 5 mM glucose + 10% dialyzed FBS, 0.0211 µM
[27] = RPMI 5 mM glucose + 10% dialyzed FBS, 0.0632 µM
[28] = RPMI 5 mM glucose + 10% dialyzed FBS, 0.19 µM
[29] = RPMI 5 mM glucose + 10% dialyzed FBS, 0.569 µM
[30] = RPMI 5 mM glucose + 10% dialyzed FBS, 1.71 µM
[31] = RPMI 5 mM glucose + 10% dialyzed FBS, 5.12 µM
[32] = RPMI 5 mM glucose + 10% dialyzed FBS, 15.4 µM
[33] = RPMI 5 mM glucose + 10% dialyzed FBS, 46.1 µM

| SMILES | cell viability [1] | cell viability [2] | cell viability [3] | cell viability [4] | cell viability [5] | cell viability [6] | cell viability [7] | cell viability [8] | cell viability [9] | cell viability [10] | cell viability [11] | cell viability [12] | cell viability [13] | cell viability [14] | cell viability [15] | cell viability [16] | cell viability [17] | cell viability [18] | cell viability [19] | cell viability [20] | cell viability [21] | cell viability [22] | cell viability [23] | cell viability [24] | cell viability [25] | cell viability [26] | cell viability [27] | cell viability [28] | cell viability [29] | cell viability [30] | cell viability [31] | cell viability [32] | cell viability [33] |
| --- | --- | --- | --- | --- | --- | --- | --- | --- | --- | --- | --- | --- | --- | --- | --- | --- | --- | --- | --- | --- | --- | --- | --- | --- | --- | --- | --- | --- | --- | --- | --- | --- | --- |
| CCN(CC)CCOc1ccc(Cc2ccccc2)cc1 | 103% | 104% | 102% | 101% | 98.9% | 103% | 105% | 95.4% | 85.2% | 29.8% | 22.8% | 101% | 95.9% | 95.1% | 95.9% | 99.4% | 98.5% | 102% | 93% | 85.7% | 77.6% | 79.3% | 87.1% | 96% | 86.5% | 97.8% | 93.4% | 89.8% | 99.5% | 93.1% | 92% | 52% | 34.4% |
| NC(=O)Nc1sc(-c2ccc(F)cc2)cc1C(N)=O | 113% | 115% | 116% | 108% | 114% | 111% | 104% | 105% | 83.4% | 67.3% | 24.3% | 113% | 114% | 111% | 110% | 105% | 119% | 106% | 106% | 83.9% | 64.6% | 22.1% | 118% | 119% | 117% | 110% | 115% | 112% | 110% | 97.3% | 82.4% | 70.2% | 27.3% |
| Clc1cccc(-n2nnnc2NCc2ccccc2Oc2ccccn2)c1Cl | 120% | 120% | 116% | 124% | 123% | 136% | 133% | 133% | 133% | 131% | 127% |  |  |  |  |  |  |  |  |  |  |  |  |  |  |  |  |  |  |  |  |  |  |
| C[C@@H]1CN(Cc2ccc(F)cc2)[C@@H](C)CN1C(=O)c1cc2c(C(=O)C(=O)N(C)C)cn(C)c2cc1Cl | 111% | 118% | 118% | 128% | 115% | 123% | 125% | 125% | 125% | 125% | 108% | 110% | 114% | 111% | 126% | 122% | 124% | 132% | 113% | 124% | 117% | 107% | 119% | 132% | 117% | 124% | 122% | 130% | 124% | 127% | 123% | 118% | 117% |
| CCOC(=O)N1c2ccc(C(F)(F)F)cc2[C@@H](N(Cc2cc(C(F)(F)F)cc(C(F)(F)F)c2)C(=O)OC)C[C@H]1CC | 127% | 120% | 116% | 119% | 119% | 114% | 121% | 110% | 116% | 110% | 106% | 131% | 123% | 122% | 132% | 133% | 116% | 127% | 121% | 124% | 103% | 111% | 115% | 128% | 117% | 118% | 120% | 127% | 121% | 114% | 123% | 112% | 104% |
| C=C1C(=O)[C@@]23C(CC[C@@H]1[C@H]2O)[C@@]12CO[C@]3(O)[C@@H](O)[C@@H]1C(C)(C)CC[C@@H]2O (some centres not stated) | 108% | 119% | 120% | 123% | 122% | 115% | 113% | 112% | 89.1% | 44.7% | 3.48% | 116% | 116% | 119% | 119% | 132% | 118% | 113% | 95.5% | 85.7% | 16.6% | 3.61% | 116% | 117% | 126% | 123% | 125% | 124% | 111% | 105% | 75.6% | 21.9% | 3.49% |
| COc1cc([C@@H]2c3cc4c(cc3[C@H](O)[C@H]3COC(=O)[C@@H]23)OCO4)cc(OC)c1OC | 84.1% | 93.9% | 95.1% | 104% | 100% | 77.6% | 30.8% | 14.3% | 8.67% | 5.39% | 4.89% | 94.5% | 95.3% | 96.5% | 95.7% | 98.7% | 83.2% | 34.1% | 20.9% | 8.85% | 5.8% | 4.88% | 86.9% | 95.1% | 101% | 94.3% | 97.6% | 91.2% | 43.9% | 22.7% | 15% | 10.4% | 5.7% |
| CCOc1cc2ncc(C#N)c(Nc3ccc(OCc4ccccn4)c(Cl)c3)c2cc1NC(=O)/C=C/CN(C)C | 116% | 124% | 122% | 115% | 117% | 115% | 62.5% | 6.67% | 4.65% | 4.41% | 3.56% | 111% | 125% | 120% | 118% | 120% | 121% | 121% | 11.3% | 6.84% | 5.28% | 5.4% | 119% | 130% | 121% | 122% | 119% | 118% | 122% | 13.5% | 7.04% | 5.08% | 4.99% |
